For orientation: Papp means a coefficient for how fast a substance crosses the barrier. Lower therefore signals poor permeation.

For the data set the following is noted: pampa; pH 5.0; 30.0 min; 50.0 µM.

Turning to `C=CCc1ccc(O)c(-c2ccc(O)c(CC=C)c2)c1`, the Papp worked out at 446 ×10⁻⁶ cm/s.
Next, `Clc1ccc(C2(c3ccc(-c4cn[nH]c4)cc3)CCNCC2)cc1`: 3.6 ×10⁻⁶ cm/s; `Cc1cccc(-c2noc([C@@H]3Cc4nc[nH]c4CN3)n2)c1`: 169 ×10⁻⁶ cm/s.
For `CCc1ccc(OC(C)C(=O)N2CCC(c3nc4ccccc4o3)CC2)cc1` (configuration not stated), the Papp was over 1000 ×10⁻⁶ cm/s.
The figure for `COc1ccc2c(c1)N(C[C@H](C)CN(C)C)c1ccccc1S2` is 723 ×10⁻⁶ cm/s.
The molecule `CCN(CCCOc1ccc2c(Nc3cc(CC(=O)Nc4cccc(F)c4)[nH]n3)ncnc2c1)CCOP(=O)(O)O` displayed an apparent permeability coefficient (Papp) of 3.64 ×10⁻⁶ cm/s.
On to `C#CCOc1ccc(-c2nnc(Nc3ccc(NC(C)=O)cc3)c3ccccc23)cc1`, for which the Papp was 265 ×10⁻⁶ cm/s.
On to `C=C1[C@@H](C)C2[C@H](Cc3ccccc3)NC(=O)[C@@]23C(/C=C/C[C@H](C)C[C@@](C)(O)/C=C/[C@@H]3OC(C)=O)[C@@H]1O` (some centres not stated), for which the Papp came to 55 ×10⁻⁶ cm/s.
Turning to `COc1ccc(-c2nc3sc(CCNC(=O)C(C)(C)C)c(C)n3n2)cc1`, the apparent permeability coefficient (Papp) is 657 ×10⁻⁶ cm/s.
Molecule `Cc1ccc(NC(=O)c2c(N3CCCC3=O)c3cc(C)ccc3n2C)c(C)c1` had an apparent permeability coefficient (Papp) of over 1000 ×10⁻⁶ cm/s.
The figure for `CCOc1ccc(NC(=O)CC2C(=O)N(c3ccc(F)cc3)C(=O)N2CCc2sccc2C)cc1` (configuration not stated) is 831 ×10⁻⁶ cm/s; for `CC(=O)Nc1ccc(C(=O)Nc2ccc3c(c2)N(C2CCCC2)C(=O)c2ccccc2S3)cc1` it is 511 ×10⁻⁶ cm/s; for `Nc1c(C(=O)Nc2ccc(Cl)cc2)sc2nc3c(cc12)N1CCC3CC1` it is 140 ×10⁻⁶ cm/s.
On to `Cn1cc2c3c(cccc31)CN(C(=O)c1ccc(F)c(Cl)c1)CC2`, for which the Papp was 824 ×10⁻⁶ cm/s.
Turning to `Cc1ccc(C)c(CN2C(=O)c3ccccc3S(=O)c3ccc(C(=O)N4CCN(c5ccccc5F)CC4)cc32)c1` (configuration not stated), the Papp is 932 ×10⁻⁶ cm/s.
Molecule `Cc1ccccc1-c1nc(NCc2ccc(-c3cccnc3)cc2)c2ccccc2n1` registered an apparent permeability coefficient (Papp) of over 1000 ×10⁻⁶ cm/s.
Next, `CC1=C(C(=O)Nc2nc3ccccc3s2)C(c2[nH]ncc2Cl)N=C(Nc2nc3ccccc3o2)N1` (configuration not stated): 15.6 ×10⁻⁶ cm/s; `COc1ccc(-n2nc(C3CCN([S+](=O)([O-])c4cccc(C(F)(F)F)c4)CC3)[nH]c2=O)cc1`: 434 ×10⁻⁶ cm/s; `Cn1nnnc1Sc1ncnc2scc(-c3ccccc3F)c12`: 451 ×10⁻⁶ cm/s.
Next, `CCOC(=O)c1ccc(NC(=O)CSc2nc3c(cc2C#N)N2CCC3CC2)cc1`: 236 ×10⁻⁶ cm/s.
Turning to `COCC(C)NCc1cc2ccc(OC)cc2nc1N1CCN(c2ccc(F)cc2)CC1` (configuration not stated), the apparent permeability (Papp) worked out at 576 ×10⁻⁶ cm/s.
The figure for `Nc1c(-c2ccccc2)cc[nH]c1=O` is 76.8 ×10⁻⁶ cm/s; for `Nc1c(-c2ccncc2)cc[nH]c1=O` it is 2.72 ×10⁻⁶ cm/s.
For the molecule `Fc1ccc(CN2CCNc3cc(Nc4ccccc4)ncc3C2)cc1F`, the apparent permeability (Papp) turned out to be 340 ×10⁻⁶ cm/s.
In turn, `CCC1=Nc2cc(C(=O)NC3CCCC3)ccc2Sc2ccc(Cl)cc21` registered a Papp of 640 ×10⁻⁶ cm/s.
Next, `CCN(CC)CCCC(C)Nc1cc(/C=C/c2ccccc2Cl)nc2cc(Cl)ccc12` (configuration not stated): 82.9 ×10⁻⁶ cm/s.
Molecule `O=C(Cc1ccc(O)cc1)N1CC(CNc2ccccc2)C2(C1)CN(c1ccccc1)C2` (configuration not stated) displayed a Papp of 616 ×10⁻⁶ cm/s.
Take `COc1cccc(Nc2ncc(-c3cccc(N(C)C)c3)c3c2OCC3)c1`: the apparent permeability coefficient (Papp) was over 1000 ×10⁻⁶ cm/s.
In the case of `CCCCOc1ccc(C2c3c(oc4ccc(C)cc4c3=O)C(=O)N2CCCN(C)C)cc1OCC` (configuration not stated), the Papp is 273 ×10⁻⁶ cm/s.
In turn, `O=C(c1ccccc1)N1CCC(c2nn(-c3ccc(F)cc3)c(=O)[nH]2)CC1` returned a Papp of 521 ×10⁻⁶ cm/s.
Turning to `Fc1ccccc1-c1nc(NCc2ccc(-c3cccnc3)cc2)c2ccccc2n1`, the Papp was over 1000 ×10⁻⁶ cm/s.
Molecule `CCc1cccc(NC(=O)c2cc(-c3ccc[nH]3)n[nH]2)c1` registered an apparent permeability (Papp) of 90.2 ×10⁻⁶ cm/s.
For the molecule `CCN(CC)C(=O)N1c2ccccc2C=Cc2ccccc21`, the Papp was over 1000 ×10⁻⁶ cm/s.
Next, `CCc1ccc(C2N=C(N)Nc3nc4ccccc4n32)cc1` (configuration not stated): 1.54 ×10⁻⁶ cm/s.
`COc1ccc2[nH]c(C[C@@H]3C[C@@H](C(C)C)[C@H](CNCc4ccccc4O)C=C3C)nc2n1` returned a Papp of 739 ×10⁻⁶ cm/s.
In the case of `COc1ccc2c(c1)CCc1c-2n[nH]c1C(=O)N1CCc2c(nc3cc(-c4ccccc4)[nH]n3c2=O)C1`, the Papp was 15.8 ×10⁻⁶ cm/s.
On to `COc1ccc(OC)c(-n2c3c(cc(-c4nc(-c5ccc(Cl)cc5)cs4)c2=O)C(=O)CC(C)(C)C3)c1`, for which the apparent permeability (Papp) was 331 ×10⁻⁶ cm/s.
Molecule `O=C(NCCc1ccccn1)C1CC(=O)N(c2n[nH]c3cc(Br)ccc23)C1` (configuration not stated) registered an apparent permeability (Papp) of 11.5 ×10⁻⁶ cm/s.
`CCCc1oc2ccc(NS(=O)(=O)c3ccc(OC)cc3)cc2c1C(=O)OCC` came in with an apparent permeability (Papp) of 1.84 ×10⁻⁶ cm/s.
Next, `CN1CCCN(C(c2ccccc2)c2ccc(Cl)cc2)CC1` (configuration not stated): over 1000 ×10⁻⁶ cm/s; `O=C(Nc1ccccc1-c1cn2c(CN3CCNCC3)csc2n1)c1cnc2ccccc2n1`: 342 ×10⁻⁶ cm/s.
Next, `CCCCNC(=O)CN1CCN(c2ncc(NC(=O)c3ccc(Cl)cc3)cc2C(=O)O)CC1`: 1.92 ×10⁻⁶ cm/s; `Cn1nnnc1Sc1ncnc2scc(-c3cc4ccccc4o3)c12`: 52.8 ×10⁻⁶ cm/s.
`COc1cccc2c1CCCC2CCCN1CCN(C2CCCCC2)CC1` (configuration not stated) gave a Papp of 777 ×10⁻⁶ cm/s.
The figure for `COc1ccc(-c2cc(C)nc3c(-c4ccc(OC)c(OC)c4)c(C)nn23)cc1` is over 1000 ×10⁻⁶ cm/s.
Next, `COc1ncc(-c2ccc3c(Nc4cc(Oc5cc(F)cc(F)c5)cc(C(=O)O)c4)c(S(=O)(=O)NC4CC4)cnc3c2)c(OC)n1`: 1.2 ×10⁻⁶ cm/s.
`O=C1Nc2cc(Cl)ccc2Nc2cscc21` came in with a Papp of 63.3 ×10⁻⁶ cm/s.
Regarding `COCCNC(=O)[C@H]1C[C@H](Oc2ccccc2)CN1Cc1ccc2[nH]ccc2c1`, the Papp came to 186 ×10⁻⁶ cm/s.
Turning to `CN1C(=O)C(=O)N2C(=C[C@]3(c4c[nH]c5ccccc45)c4ccccc4N[C@H]23)C1=O`, the apparent permeability (Papp) was found to be 986 ×10⁻⁶ cm/s.
Next, `CC[C@H](C)[C@@H]([C@@H](CC(=O)N1CCC[C@H]1[C@H](OC)[C@@H](C)C(=O)N[C@@H](Cc1ccccc1)c1nccs1)OC)N(C)C(=O)[C@@H](NC(=O)[C@H](C(C)C)N(C)C)C(C)C`: 224 ×10⁻⁶ cm/s; `CCOC(=O)c1ccc(N2C(=O)c3n[nH]c(-c4cccs4)c3C2c2ccc(OCC)cc2)cc1` (configuration not stated): 448 ×10⁻⁶ cm/s.
In the case of `Cc1c(-c2cccc(NC(=O)c3ccc(F)c(F)c3)c2)nc2ncccn12`, the apparent permeability (Papp) came to 710 ×10⁻⁶ cm/s.
Next, `O=c1[nH]c(N2CCOCC2)nc2c1CCN(Cc1ccc(Cl)cc1F)CC2`: 71.2 ×10⁻⁶ cm/s; `O=C(Nc1ccccc1F)c1nc(S(=O)(=O)Cc2ccccc2F)ncc1Cl`: 505 ×10⁻⁶ cm/s; `CC(C)Oc1ccc(CNC(=O)C2CCN(C(=O)N3CCOc4ccc(Cl)cc43)CC2)cc1`: 860 ×10⁻⁶ cm/s.
As for `CCC1=Nc2cc(C(=O)NCCCOC)ccc2Sc2ccc(Br)cc21`, the Papp was over 1000 ×10⁻⁶ cm/s.
As for `COc1ccc(-c2ccc3ncc(Nc4ccc(C(N)=O)cc4)n3n2)cc1OC`, the Papp turned out to be 81.8 ×10⁻⁶ cm/s.
In turn, `Cc1ccc(-c2ccc(CNc3nc(-c4ccccc4C(C)C)nc4ccccc34)cc2)cn1` registered a Papp of 857 ×10⁻⁶ cm/s.
Take `Cc1cc(Br)ccc1NC(=O)C(NS(=O)(=O)c1cccs1)c1ccccc1` (configuration not stated): the Papp came to 79.4 ×10⁻⁶ cm/s.
With `CN1CCN(C2=Nc3ccccc3Sc3ccc(Cl)cc32)CC1`, the apparent permeability coefficient (Papp) was determined as 887 ×10⁻⁶ cm/s.
Next, `O=C(NC[C@H]1Cn2c(-c3ccc(Cl)cc3)cnc2CO1)C1CCCC1`: 19.4 ×10⁻⁶ cm/s.
On to `COc1ccc(CN2CCNc3cc(Nc4ccccc4)ncc3C2)cc1`, for which the apparent permeability (Papp) was 119 ×10⁻⁶ cm/s.
Molecule `COc1ccccc1-c1nnc2sc(-c3ccc(N(C)C)cc3)nn12` displayed an apparent permeability (Papp) of over 1000 ×10⁻⁶ cm/s.
Molecule `Cc1ccccc1C(=O)Nc1ccc2c(c1)CCCN2C(=O)c1cccs1` showed an apparent permeability (Papp) of 561 ×10⁻⁶ cm/s.
The figure for `COc1ccc(C(=O)NC2CCCc3c2[nH]c2c(Cl)cccc32)cc1OC` (configuration not stated) is 483 ×10⁻⁶ cm/s; for `O=C(NCc1ccccc1)c1nc(S(=O)(=O)Cc2ccc(F)cc2)ncc1Cl` it is 296 ×10⁻⁶ cm/s.
Regarding `COc1ccccc1N1CCN(CCN(C(=O)c2ccc(I)cc2)c2ccccn2)CC1`, the Papp came to 758 ×10⁻⁶ cm/s.
Molecule `C[C@H]1CCC[C@H](O)CCC/C=C/c2cc(O)cc(O)c2C(=O)O1` had a Papp of 795 ×10⁻⁶ cm/s.
In the case of `CCOc1ccc(C2c3c(oc4ccc(C)cc4c3=O)C(=O)N2CCCN(C)C)cc1` (configuration not stated), the apparent permeability (Papp) was found to be 29.6 ×10⁻⁶ cm/s.
With `CC(=O)N1CCc2c(sc3c2c(=O)n(-c2ccccc2Cl)c(=O)n3Cc2cccc(C)c2)C1`, the Papp was found to be 687 ×10⁻⁶ cm/s.
On to `O=C(O)Cc1ccc2oc(-c3ccc(NC(=O)/C=C/c4ccc(Br)cc4)c(F)c3)nc2c1`, for which the Papp is 405 ×10⁻⁶ cm/s.
Turning to `CNc1sc(-c2cccc3ccccc23)nc1C#N`, the apparent permeability coefficient (Papp) was 268 ×10⁻⁶ cm/s.
`CCOC(=O)c1ccc(NC(=O)c2sc3nc4c(cc3c2N)N2CCC4CC2)cc1` registered an apparent permeability coefficient (Papp) of 720 ×10⁻⁶ cm/s.
`COc1ccc(-c2noc([C@@H]3Cc4nc[nH]c4CN3C(=O)NC3CCCCC3)n2)cc1` came in with an apparent permeability (Papp) of 58.2 ×10⁻⁶ cm/s.
In the case of `COc1ccc(-n2nc(C3CCCN(CC4CCCCC4)C3)[nH]c2=O)cc1` (configuration not stated), the apparent permeability (Papp) was determined as 322 ×10⁻⁶ cm/s.
Turning to `Cc1c(Cl)cccc1NC(=O)CNS(=O)(=O)c1cccs1`, the apparent permeability (Papp) was found to be 458 ×10⁻⁶ cm/s.
The figure for `Cc1cc(CNC(=O)c2ccc3c(c2)n(CC2CC2)c(=O)n3C2CCCCC2)on1` is 870 ×10⁻⁶ cm/s.
`CCc1[nH]c2ccc(CNC(=O)Cc3cnc4c(C)cccn34)cc2c1C` showed a Papp of 32.2 ×10⁻⁶ cm/s.
Molecule `COc1cc2c(c(OC)c1OC)-c1ccc(OC)c(=O)cc1[C@@H](NC(C)=O)CC2` showed a Papp of 4.51 ×10⁻⁶ cm/s.
For `CNc1nc2c(s1)C(c1ccc(Cl)cc1)CC(=O)N2` (configuration not stated), the Papp was 204 ×10⁻⁶ cm/s.
In the case of `CCN(CC)CCOc1ccc(Cc2ccccc2)cc1`, the Papp amounted to 236 ×10⁻⁶ cm/s.
Take `CCc1ccc2ncc(C(=O)c3ccc(C)c(C)c3)c(N3CCC(C(N)=O)CC3)c2c1`: the apparent permeability (Papp) came to 653 ×10⁻⁶ cm/s.
As for `Cc1ccc(NC(=O)NCC2CCN(Cc3cccc(Cl)c3)CC2)cc1Cl`, the Papp was over 1000 ×10⁻⁶ cm/s.
`Cc1noc(C)c1-c1cc(-c2ccc3c(c2)C(=O)NC3)cn2cncc12` returned a Papp of 64.5 ×10⁻⁶ cm/s.
Turning to `O=C(NCC1CCN(Cc2cccc(Cl)c2)CC1)Nc1ccc(F)c(Cl)c1`, the apparent permeability (Papp) was 638 ×10⁻⁶ cm/s.
The figure for `O=C(O)c1ccc(Nc2nc(-c3cc4ccccc4oc3=O)cs2)cc1O` is 74.2 ×10⁻⁶ cm/s; for `COc1ccc(CCNc2ncnc3onc(C)c23)c(OC)c1` it is 540 ×10⁻⁶ cm/s.
For `CN1Cc2c(cc(N3CCOCC3)nc2-c2ccccc2OC(F)(F)F)C1=O`, the Papp was over 1000 ×10⁻⁶ cm/s.
`COc1cccc(-n2nc(C(=O)O)cc2-c2ccc(C3CCCCC3)c(Cl)c2)c1` returned a Papp of 401 ×10⁻⁶ cm/s.
In the case of `COc1ccc(-c2nc3ccc(C4=NNC(=O)CC4C)cc3[nH]2)cc1` (configuration not stated), the Papp is 232 ×10⁻⁶ cm/s.
The figure for `CCCCOc1ccc(C(=O)N2CCC(c3n[nH]c(=O)n3-c3ccc(C)cc3)CC2)cc1` is over 1000 ×10⁻⁶ cm/s; for `Cc1cc(C)nc(NC(=S)N2CCN(Cc3ccc(C(F)(F)F)cc3)CC2)c1` it is over 1000 ×10⁻⁶ cm/s.

For the origin of these results see PubChem BioAssay AID1645871.
